Results published in ChEMBL document CHEMBL1145646, “New anti-inflammatory ergostane-type ecdysteroids from the sclerotium of Polyporus umbellatus” (2008).

Each molecule was assayed on Mus musculus (assay: Inhibition of TPA-induced inflammation in mouse assessed per ear by edema assay).
Type: functional
With `CC(C)C(C)/C=C/[C@@H](C)[C@H]1CC[C@H]2C3=C[C@@H](O)[C@@]4(O)C[C@@H](O)CC[C@]4(C)[C@H]3CC[C@]12C` (some centres undefined) the ID50 was 0.666 µmol/ear.
With `COc1ccc2c(c1)c(CC(=O)O)c(C)n2C(=O)c1ccc(Cl)cc1` [INDOMETHACIN] the ID50 was 0.838 µmol/ear.
`CC(C)C(C)[C@H](O)[C@@H]1O[C@H]2C[C@@]3(O)C4=CC(=O)[C@@H]5C[C@@H](O)[C@@H](O)C[C@]5(C)[C@H]4CC[C@]3(C)[C@H]2[C@@]1(C)O` (some centres undefined) [POLYPOROID A] gave an ID50 of 0.531 µmol/ear.
`C[C@@H]1[C@H]([C@@H](O)[C@](C)(O)[C@H]2CC[C@@]3(O)C4=CC(=O)[C@@H]5C[C@@H](O)[C@@H](O)C[C@]5(C)[C@H]4CC[C@]23C)OC[C@H]1C` [POLYPOROID B] was tested, and the ID50 was 0.682 µmol/ear.
`CC(C)C(C)C[C@@H](O)[C@](C)(O)[C@H]1[C@@H](O)C[C@@]2(O)C3=CC(=O)[C@@H]4C[C@@H](O)[C@@H](O)C[C@]4(C)[C@H]3CC[C@]12C` (some centres undefined) [POLYPOROID C] gave an ID50 of 0.184 µmol/ear.
In the case of `CC(C)C(C)C[C@@H](O)[C@](C)(O)[C@H]1CC[C@@]2(O)C3=CC(=O)[C@@H]4C[C@@H](O)[C@@H](O)C[C@]4(C)[C@H]3CC[C@]12C` (some centres undefined) [POLYPORUSTERONE A], the ID50 is reported as 0.141 µmol/ear.
With `C=C(C[C@@H](O)[C@](C)(O)[C@H]1CC[C@@]2(O)C3=CC(=O)[C@@H]4C[C@@H](O)[C@@H](O)C[C@]4(C)[C@H]3CC[C@]12C)C(C)C` [POLYPORUSTERONE B] the ID50 was 0.117 µmol/ear.
`CC(C)C(C)C1O[C@H]1[C@](C)(O)[C@H]1CC[C@@]2(O)C3=CC(=O)[C@@H]4C[C@@H](O)[C@@H](O)C[C@]4(C)[C@H]3CC[C@]12C` (some centres undefined) [POLYPORUSTERONE C] was tested, and the ID50 was 0.289 µmol/ear.
`C=C(C[C@@H](O)[C@@H](C)[C@H]1CC[C@@]2(O)C3=CC(=O)[C@@H]4C[C@@H](O)[C@@H](O)C[C@]4(C)[C@H]3CC[C@]12C)C(C)C` [POLYPORUSTERONE G] showed an ID50 of 0.207 µmol/ear.
